IC50 data for 20 molecules are collected here from patent US11827627B2, “N-(hydroxyalkyl (hetero)aryl) tetrahydrofuran carboxamides as modulators of sodium channels” (VERTEX PHARMACEUTICALS INCORPORATED, priority 2021, dated 2023).

Sequence of human NaV 1.8 (Q9Y5Y9 126-1722 limits assumed): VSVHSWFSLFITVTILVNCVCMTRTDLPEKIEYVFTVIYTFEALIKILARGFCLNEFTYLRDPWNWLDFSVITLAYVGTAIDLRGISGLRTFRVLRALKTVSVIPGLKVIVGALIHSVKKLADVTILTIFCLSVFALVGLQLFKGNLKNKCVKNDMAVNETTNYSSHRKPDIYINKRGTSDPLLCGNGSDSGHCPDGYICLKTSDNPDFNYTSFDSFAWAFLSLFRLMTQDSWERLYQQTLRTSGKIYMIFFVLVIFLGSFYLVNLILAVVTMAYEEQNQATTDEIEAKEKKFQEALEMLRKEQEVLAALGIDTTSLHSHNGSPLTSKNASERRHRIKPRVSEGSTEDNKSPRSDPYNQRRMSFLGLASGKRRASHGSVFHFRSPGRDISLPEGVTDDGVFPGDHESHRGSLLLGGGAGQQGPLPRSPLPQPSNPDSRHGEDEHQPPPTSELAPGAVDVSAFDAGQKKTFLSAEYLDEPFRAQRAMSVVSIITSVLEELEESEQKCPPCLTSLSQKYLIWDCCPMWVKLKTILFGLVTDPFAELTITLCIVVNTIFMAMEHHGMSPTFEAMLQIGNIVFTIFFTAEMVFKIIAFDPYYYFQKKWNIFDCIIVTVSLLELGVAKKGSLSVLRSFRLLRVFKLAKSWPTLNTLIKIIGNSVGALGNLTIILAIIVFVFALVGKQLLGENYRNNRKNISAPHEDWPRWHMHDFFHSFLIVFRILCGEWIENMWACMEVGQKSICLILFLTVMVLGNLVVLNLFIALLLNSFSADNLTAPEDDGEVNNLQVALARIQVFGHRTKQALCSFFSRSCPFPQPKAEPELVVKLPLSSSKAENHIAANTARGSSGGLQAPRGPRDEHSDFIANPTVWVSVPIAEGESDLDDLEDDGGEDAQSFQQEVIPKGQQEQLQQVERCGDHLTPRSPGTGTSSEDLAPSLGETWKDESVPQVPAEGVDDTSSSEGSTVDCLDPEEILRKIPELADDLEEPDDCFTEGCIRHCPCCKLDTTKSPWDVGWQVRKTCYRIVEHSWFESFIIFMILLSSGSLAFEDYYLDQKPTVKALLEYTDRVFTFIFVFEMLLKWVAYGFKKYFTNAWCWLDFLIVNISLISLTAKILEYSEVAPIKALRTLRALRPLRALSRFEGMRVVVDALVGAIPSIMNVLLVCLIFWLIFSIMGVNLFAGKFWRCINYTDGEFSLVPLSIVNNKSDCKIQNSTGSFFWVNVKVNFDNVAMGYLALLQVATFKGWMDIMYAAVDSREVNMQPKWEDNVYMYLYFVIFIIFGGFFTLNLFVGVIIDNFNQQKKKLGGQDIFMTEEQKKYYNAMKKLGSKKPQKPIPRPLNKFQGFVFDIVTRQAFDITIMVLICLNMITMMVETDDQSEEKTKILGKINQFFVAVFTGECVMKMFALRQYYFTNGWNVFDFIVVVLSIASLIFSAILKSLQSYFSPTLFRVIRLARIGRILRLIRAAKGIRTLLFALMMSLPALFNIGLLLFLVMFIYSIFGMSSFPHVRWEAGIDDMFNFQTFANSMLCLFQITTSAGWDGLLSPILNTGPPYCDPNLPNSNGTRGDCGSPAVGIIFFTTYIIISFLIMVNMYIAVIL

This test concerns the target human NaV 1.8 (Homo sapiens, UniProt Q9Y5Y9). As to the kind of experiment: E-VIPR assay detecting and measuring NaV inhibition properties. The test is classed as cell-based. The note with it: HEK cells expressing a truncated form of human NaV 1.8; electrical stimulation, membrane potential FRET dyes. The text has this: E-VIPR Assay Detecting and Measuring NaV Inhibition Properties
Sodium ion channels are voltage-dependent proteins that can be activated by inducing membrane voltage changes by applying electric fields. The electrical stimulation instrument and methods of use, referred to as E-VIPR, are described in International Publication No. WO 2002/008748 A3 and C.-J. Huang et al. Characterization of voltage-gated sodium channel blockers by electrical stimulation and fluorescence detection of membrane potential, 24 Nature Biotech. 439-46 (2006), both of which are incorporated by reference in their entirety. The instrument comprises a microtiter plate handler, an optical system for exciting the coumarin dye while simultaneously recording the coumarin and oxonol emissions, a waveform generator, a current- or voltage-controlled amplifier, and parallel electrode pairs that are inserted into assay plate wells. Under integrated computer control, this instrument passes user-programmed electrical stimulus protocols to cells within the wells of the microtiter plate.
16-20 hours prior to running the assay on E-VIPR, HEK cells expressing a truncated form of human NaV 1.8 with full channel activity were seeded into microtiter 384-well plates, pre-coated with matrigel, at a density of 25,000 cells per well. 2.5-5% KIR2.1 Bacmam virus was added to the final cell suspension before seeding into cell plates. HEK cells were grown in Dulbecco's Modified Eagle's Medium (DMEM) supplemented with 10% FBS (Fetal Bovine Serum, qualified; Sigma #F4135), 1% NEAA (Non-Essential Amino Acids, Gibco #11140), 1% HEPES (Gibco #15630), 1% Pen-Strep (Penicillin-Streptomycin; Gibco #15140) and 5 μg/ml Blasticidin (Gibco #R210-01). Cells were expanded in vented cap cell culture flasks, with 90-95% humidity and 5% CO2.
Reagents and Stock Solutions:
100 mg/mL Pluronic F-127 (Sigma #P2443), in dry DMSO
Compound Plates: Corning 384-well Polypropylene Round Bottom #3656
Cell Plates: 384-well tissue culture treated plates (Greiner #781091-2B)
2.5-5% KIR 2.1 Bacmam virus (produced in-house), prepared as described in Section 3.3 of J. A. Fornwald et al., Gene Expression in Mammalian Cells Using BacMam, a Modified Baculovirus System, 1350 Methods in Molecular Biology 95-116 (2016), the entire contents of which are incorporated by reference. The concentration used can be dependent on viral titer of each batch.
5 mM DiSBAC6(3), a voltage sensitive oxonol acceptor (CAS number 169211-44-3; 5-[3-(1,3-dihexylhexahydro-4,6-dioxo-2-thioxo-5-pyrimidinyl)-2-propen-1-ylidene]-1,3-dihexyldihydro-2-thioxo-4,6(1H,5H)-pyrimidinedione), in dry DMSO. The preparation of DiSBAC6(3) is analogous to that of DiSBAC4(3) as described in Voltage Sensing by Fluorescence Resonance Energy Transfer in Single Cells, Gonzalez, J. E. and Tsien, R. Y. (1995) Biophys. J. 69, 1272-1280.
5 mM CC2-DMPE, a commercially available membrane-bound coumarin phospholipid FRET donor (ThermoFisher Scientific catalog number K1017, CAS number 393782-57-5; tetradecanoic acid, 1,1′-[(1R)-1-[8-(6-chloro-7-hydroxy-2-oxo-2H-1-benzopyran-3-yl)-3-hydroxy-3-oxido-8-oxo-2,4-dioxa-7-aza-3-phosphaoct-1-yl]-1,2-ethanediyl]ester) was prepared in dry DMSO. See also, Improved indicators of cell membrane potential that use fluorescence resonance energy transfer, Gonzalez, J. E. and Tsien, R. Y. (1997) Chem. Biol. 4, 269-277.
Voltage Assay Background Suppression Compound (VABSC-1) is prepared in H2O (89-363 mM, range used to maintain solubility)
Human Serum (HS, Millipore #S1P1-01KL, or Sigma SLBR5469V and SLBR5470V as a 50%/50% mixture, for 25% assay final concentration)
Bath 1 Buffer: • Sodium Chloride 160 mM (9.35 g/L), Potassium Chloride, 4.5 mM (0.335 g/L), Glucose 10 mM (1.8 g/L), Magnesium Chloride (Anhydrous) 1 mM (0.095 g/L), Calcium Chloride 2 mM (0.222 g/L), HEPES 10 mM (2.38 g/L) in water. […]
Consider `Cc1c([C@@H]2[C@@H](C(=O)Nc3ccc(CO)nc3)O[C@@](C)(C(F)(F)F)[C@H]2C)ccc(F)c1F` (single isomer, unassigned) [Compound 79], for which the IC50 (usually the concentration needed to halve the response being measured) is at least 1000 nM.

With `C[C@]1(C(F)(F)F)C[C@H](c2ccc(OC(F)(F)F)cc2Cl)[C@@H](C(=O)Nc2ccc([C@@H](O)CO)nc2)O1` (single isomer, unassigned) [Compound 64, rel-(2S,3R,5R)-3-(2-chloro-4-(trifluoromethoxy)phenyl)-N-(6-((R*)-1,2-dihydroxyethyl)pyridin-3-yl)-5-methyl-5-(trifluoromethyl)tetrahydrofuran-2-carboxamide], the IC50 was at least 1000 nM.

In turn, `CC(C)Oc1c(C2C(C(=O)Nc3cnc(C(O)CO)nc3)OC(C)(C(F)(F)F)C2C)ccc(F)c1F` (centres unmarked) [Compound 9] showed an IC50 of 10 to 100 nM.

The molecule `COc1c([C@H]2[C@H](C(=O)Nc3ccc([C@@H](O)[C@@H](C)O)nc3)O[C@@](C)(C(F)(F)F)[C@H]2C)ccc(F)c1F` (single isomer, unassigned) [Compound 3, rel-(2R*,3S*,4S*,5R*)-3-(3,4-difluoro-2-methoxyphenyl)-N-(6-((1R,2R)-1,2-dihydroxypropyl)pyridin-3-yl)-4,5-dimethyl-5-(trifluoromethyl)tetrahydrofuran-2-carboxamide] registered a concentration for half-maximal inhibition (IC50) of under 10 nM.

On to `COc1c([C@H]2[C@H](C(=O)Nc3ccc([C@H](O)[C@H](C)O)nc3)O[C@@](C)(C(F)(F)F)[C@H]2C)ccc(F)c1F` (single isomer, unassigned) [Compound 4, rel-(2R*,3S*,4S*,5R*)-3-(3,4-difluoro-2-methoxyphenyl)-N-(6-((1S,2S)-1,2-dihydroxypropyl)pyridin-3-yl)-4,5-dimethyl-5-(trifluoromethyl)tetrahydrofuran-2-carboxamide], for which the IC50 is under 10 nM.

Consider `COc1c([C@@H]2C[C@](C)(C(F)(F)F)O[C@H]2C(=O)Nc2ccc([C@@H](O)CO)nc2)ccc(F)c1F` (relative stereo) [Compound 24, rel-(2R,3S,5R)-3-(3,4-difluoro-2-methoxyphenyl)-N-(6-((R*)-1,2-dihydroxyethyl)pyridin-3-yl)-5-methyl-5-(trifluoromethyl)tetrahydrofuran-2-carboxamide], for which the IC50 was in the range of 100 to 1000 nM.

For the molecule `COc1c(C2C(C(=O)Nc3ccc(C(O)CO)nc3)OC(C)(C(F)(F)F)C2C)ccc(F)c1C(F)F` (single isomer, unassigned) [Compound 50], the IC50 is at least 1000 nM.

Take `COc1c([C@@H]2[C@@H](C(=O)Nc3cnc(C(O)CO)nc3)O[C@](C)(C(F)(F)F)[C@@H]2C)cccc1C(F)(F)F` (single isomer, unassigned) [Compound 72]: the half-maximal inhibitory concentration (IC50) is at least 1000 nM.

In turn, `COc1c(C2C(C(=O)Nc3cnc(C(O)CO)nc3)OC(C)(C(F)(F)F)C2C)ccc(F)c1F` (single isomer, unassigned) [Compound 11] registered a concentration for half-maximal inhibition (IC50) of under 10 nM.

The molecule `COc1c([C@H]2C[C@@](C)(C(F)(F)F)O[C@@H]2C(=O)Nc2ccc([C@@H](O)CO)nc2)ccc(F)c1F` (relative stereo) [Compound 25, rel-(2S,3R,5S)-3-(3,4-difluoro-2-methoxyphenyl)-N-(6-((R*)-1,2-dihydroxyethyl)pyridin-3-yl)-5-methyl-5-(trifluoromethyl)tetrahydrofuran-2-carboxamide] displayed an IC50 of at least 1000 nM.

For `COc1c(C2C(C(=O)Nc3ccc(CO)nc3)OC(C)(C(F)(F)F)C2C)ccc(C(F)F)c1F` (single isomer, unassigned) [Compound 90], the IC50 was at least 1000 nM.

`COc1c(C2C(C(=O)Nc3ccc(CO)nc3)OC(C)(C(F)(F)F)C2C)ccc(F)c1C(F)F` (single isomer, unassigned) [Compound 52] came in with an IC50 of at least 1000 nM.

With `CCOc1c([C@H]2[C@H](C(=O)Nc3ccc([C@@H](O)CO)nc3)O[C@@](C)(C(F)(F)F)[C@H]2C)ccc(F)c1C` (single isomer, unassigned) [Compound 40, rel-(2R,3S,4S,5R)—N-(6-((R*)-1,2-dihydroxyethyl)pyridin-3-yl)-3-(2-ethoxy-4-fluoro-3-methylphenyl)-4,5-dimethyl-5-(trifluoromethyl)tetrahydrofuran-2-carboxamide], the IC50 was under 10 nM.

As for `C[C@H]1[C@@H](c2ccc(F)c(F)c2O)[C@H](C(=O)Nc2cnc(CO)nc2)O[C@@]1(C)C(F)(F)F` [Compound 39, (2R,3S,4S,5R)-3-(3,4-difluoro-2-hydroxyphenyl)-N-(2-(hydroxymethyl)pyrimidin-5-yl)-4,5-dimethyl-5-(trifluoromethyl)tetrahydrofuran-2-carboxamide], the IC50 was at least 1000 nM.

Molecule `COc1c([C@@H]2[C@@H](C(=O)Nc3ccc(C(C)O)nc3)O[C@](C)(C(F)(F)F)[C@@H]2C)ccc(F)c1C(F)F` (single isomer, unassigned) [Compound 57] gave an IC50 of at least 1000 nM.

Take `C[C@H]1[C@@H](c2ccc(F)c(F)c2O)[C@H](C(=O)Nc2ccc([C@@H](O)CO)nc2)O[C@@]1(C)C(F)(F)F` [Compound 36, (2R,3S,4S,5R)-3-(3,4-difluoro-2-hydroxyphenyl)-N-(6-((R)-1,2-dihydroxyethyl)pyridin-3-yl)-4,5-dimethyl-5-(trifluoromethyl)tetrahydrofuran-2-carboxamide]: the IC50 is 100 to 1000 nM.

The molecule `COc1c([C@H]2C[C@@](C)(C(F)(F)F)O[C@@H]2C(=O)Nc2ccc([C@H](O)CO)nc2)ccc(F)c1F` (single isomer, unassigned) [Compound 27, rel-(2S,3R,5S)-3-(3,4-difluoro-2-methoxyphenyl)-N-(6-((S*)-1,2-dihydroxyethyl)pyridin-3-yl)-5-methyl-5-(trifluoromethyl)tetrahydrofuran-2-carboxamide] came in with an IC50 of at least 1000 nM.

Turning to `COc1c([C@@H]2[C@@H](C(=O)Nc3ccc([C@H](O)CO)nc3)O[C@](C)(C(F)(F)F)[C@@H]2C)ccc(F)c1C(F)F` (single isomer, unassigned) [Compound 48, rel-(2S,3R,4R,5S)-3-(3-(difluoromethyl)-4-fluoro-2-methoxyphenyl)-N-(6-((S*)-1,2-dihydroxyethyl)pyridin-3-yl)-4,5-dimethyl-5-(trifluoromethyl)tetrahydrofuran-2-carboxamide], the IC50 was at least 1000 nM.

`C[C@H]1[C@@H](c2ccc(F)c(F)c2OCC(F)F)[C@H](C(=O)Nc2ccc([C@@H](O)CO)nc2)O[C@@]1(C)C(F)(F)F` [Compound 38, (2R,3S,4S,5R)-3-(2-(2,2-difluoroethoxy)-3,4-difluorophenyl)-N-(6-((R)-1,2-dihydroxyethyl)pyridin-3-yl)-4,5-dimethyl-5-(trifluoromethyl)tetrahydrofuran-2-carboxamide] returned an IC50 of under 10 nM.

`C[C@@]1(C(F)(F)F)C[C@@H](c2ccc(OC(F)(F)F)cc2Cl)[C@H](C(=O)Nc2ccc([C@@H](O)CO)nc2)O1` (single isomer, unassigned) [Compound 63, rel-(2R,3S,5S)-3-(2-chloro-4-(trifluoromethoxy)phenyl)-N-(6-((R*)-1,2-dihydroxyethyl)pyridin-3-yl)-5-methyl-5-(trifluoromethyl)tetrahydrofuran-2-carboxamide] gave an IC50 of at least 1000 nM.
